Earlier results, collected in patent publication US20120093928A1, “ORAL METAXALONE COMPOSITIONS” (RANBAXY LABORATORIES LIMITED, priority 2007, published 2012).

- plasma half-life (in vivo): 2 to 3 h
- time to mean peak plasma concentrations (oral, single 800 mg dosage): 2 h
Compound: Cc1cc(C)cc(OCC2CNC(=O)O2)c1 (centres unmarked) [metaxalone, 5-[(3,5-dimethyphenoxy)methyl]-2-oxazolidinone]
